From PubChem BioAssay (NCI)
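48-hour exposure; five concentrations; linearly interpolated endpoints. GI50: concentration for 50% inhibition of growth. TGI marks complete inhibition of growth.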

Legend:
Experiment in all cases: growth of human tumour cells (NCI), 48 h
RPMI-8226 leukemia = system: RPMI-8226 leukemia
CAKI-1 renal = system: CAKI-1 renal
HS 578T breast = system: HS 578T breast
KM12 colon = system: KM12 colon
SR leukemia = system: SR leukemia
NCI-H460 lung = system: NCI-H460 lung
LOX IMVI melanoma = system: LOX IMVI melanoma
SNB-19 CNS = system: SNB-19 CNS
NCI-H226 lung = system: NCI-H226 lung
NCI-H522 lung = system: NCI-H522 lung
ACHN renal = system: ACHN renal
MALME-3M melanoma = system: MALME-3M melanoma
IGROV1 ovarian = system: IGROV1 ovarian
OVCAR-8 ovarian = system: OVCAR-8 ovarian
MDA-MB-231 breast = system: MDA-MB-231 breast
HL-60(TB) leukemia = system: HL-60(TB) leukemia
SW-620 colon = system: SW-620 colon
SK-MEL-5 melanoma = system: SK-MEL-5 melanoma
SF-539 CNS = system: SF-539 CNS
786-0 renal = system: 786-0 renal
PC-3 prostate = system: PC-3 prostate
UACC-257 melanoma = system: UACC-257 melanoma
HOP-92 NSCLC = system: HOP-92 NSCLC
SK-MEL-28 melanoma = system: SK-MEL-28 melanoma
K-562 leukemia = system: K-562 leukemia
EKVX NSCLC = system: EKVX NSCLC
MDA-MB-468 breast = system: MDA-MB-468 breast
DU-145 prostate = system: DU-145 prostate
UO-31 renal = system: UO-31 renal
SNB-75 CNS = system: SNB-75 CNS
HCC-2998 colon = system: HCC-2998 colon
SF-268 CNS = system: SF-268 CNS
COLO 205 colon = system: COLO 205 colon
SF-295 CNS = system: SF-295 CNS
RXF 393 renal = system: RXF 393 renal
HOP-62 NSCLC = system: HOP-62 NSCLC
OVCAR-4 ovarian = system: OVCAR-4 ovarian
T-47D breast = system: T-47D breast
OVCAR-5 ovarian = system: OVCAR-5 ovarian
TK-10 renal = system: TK-10 renal
MOLT-4 leukemia = system: MOLT-4 leukemia
NCI-H23 lung = system: NCI-H23 lung
A498 renal = system: A498 renal
M14 melanoma = system: M14 melanoma
U251 CNS = system: U251 CNS
SN12C renal = system: SN12C renal
OVCAR-3 ovarian = system: OVCAR-3 ovarian
HT29 colon = system: HT29 colon
MDA-MB-435 = system: MDA-MB-435
SK-OV-3 ovarian = system: SK-OV-3 ovarian
BT-549 breast = system: BT-549 breast
SK-MEL-2 melanoma = system: SK-MEL-2 melanoma
MCF7 breast = system: MCF7 breast
CCRF-CEM leukemia = system: CCRF-CEM leukemia
A549 NSCLC = system: A549 NSCLC
HCT-15 colon = system: HCT-15 colon
HCT-116 colon = system: HCT-116 colon
NCI/ADR-RES ovarian = system: NCI/ADR-RES ovarian
UACC-62 melanoma = system: UACC-62 melanoma

`O=C(NO)c1ccc(Cn2ccc3c(Nc4ccccc4)ncnc32)cc1` was tested, and the GI50 (RPMI-8226 leukemia) was 1.1 µM, the TGI (RPMI-8226 leukemia) was greater than 29 µM and the GI50 (CAKI-1 renal) was 2.17 µM. It also gave a TGI (CAKI-1 renal) of 6.91 µM, a GI50 (HS 578T breast) of 1.7 µM and a TGI (HS 578T breast) of 17.5 µM. It also gave a GI50 (KM12 colon) of 3.7 µM, a TGI (KM12 colon) of 10.9 µM and a GI50 (SR leukemia) of 0.817 µM. For the same molecule, the TGI (SR leukemia) was greater than 29 µM, the GI50 (NCI-H460 lung) was 1.33 µM and the TGI (NCI-H460 lung) was 8.45 µM. For the same molecule, the GI50 (LOX IMVI melanoma) was 1.78 µM, the TGI (LOX IMVI melanoma) was 5.44 µM and the GI50 (SNB-19 CNS) was 3.26 µM. The TGI (SNB-19 CNS) was 7.51 µM, the GI50 (NCI-H226 lung) was 3.88 µM and the TGI (NCI-H226 lung) was 16 µM. For the same molecule, the GI50 (NCI-H522 lung) was 1.07 µM, the TGI (NCI-H522 lung) was 4.87 µM and the GI50 (ACHN renal) was 1.95 µM. It also gave a TGI (ACHN renal) of 5.92 µM, a GI50 (MALME-3M melanoma) of 0.869 µM and a TGI (MALME-3M melanoma) of 4.1 µM. The GI50 (IGROV1 ovarian) was 2.34 µM, the TGI (IGROV1 ovarian) was 6.22 µM and the GI50 (OVCAR-8 ovarian) was 1.29 µM. For the same molecule, the TGI (OVCAR-8 ovarian) was 8.8 µM, the GI50 (MDA-MB-231 breast) was 1.94 µM and the TGI (MDA-MB-231 breast) was 6.68 µM. For the same molecule, the GI50 (HL-60(TB) leukemia) was 0.984 µM, the TGI (HL-60(TB) leukemia) was 3.89 µM and the GI50 (SW-620 colon) was 0.863 µM. It also gave a TGI (SW-620 colon) of 3.31 µM, a GI50 (SK-MEL-5 melanoma) of 1.06 µM and a TGI (SK-MEL-5 melanoma) of 4.05 µM. For the same molecule, the GI50 (SF-539 CNS) was 2.55 µM, the TGI (SF-539 CNS) was 6.77 µM and the GI50 (786-0 renal) was 3.78 µM. For the same molecule, the TGI (786-0 renal) was 8.97 µM, the GI50 (PC-3 prostate) was 2.82 µM and the TGI (PC-3 prostate) was 21.5 µM. For the same molecule, the GI50 (UACC-257 melanoma) was 2.3 µM, the TGI (UACC-257 melanoma) was 9.79 µM and the GI50 (HOP-92 NSCLC) was 1.74 µM. For the same molecule, the TGI (HOP-92 NSCLC) was 7.35 µM, the GI50 (SK-MEL-28 melanoma) was 2.04 µM and the TGI (SK-MEL-28 melanoma) was 6.29 µM. The GI50 (K-562 leukemia) was 1.14 µM, the TGI (K-562 leukemia) was greater than 29 µM and the GI50 (EKVX NSCLC) was 2.75 µM. It also gave a TGI (EKVX NSCLC) of 6.9 µM, a GI50 (MDA-MB-468 breast) of 0.718 µM and a TGI (MDA-MB-468 breast) of 2.76 µM. The GI50 (DU-145 prostate) was 1.41 µM, the TGI (DU-145 prostate) was greater than 29 µM and the GI50 (UO-31 renal) was 2.42 µM. The TGI (UO-31 renal) was 6.38 µM, the GI50 (SNB-75 CNS) was 1.04 µM and the TGI (SNB-75 CNS) was 6.11 µM. It also gave a GI50 (HCC-2998 colon) of 2.62 µM, a TGI (HCC-2998 colon) of 6.12 µM and a GI50 (SF-268 CNS) of 4.06 µM. It also gave a TGI (SF-268 CNS) of 9.64 µM, a GI50 (COLO 205 colon) of 1.43 µM and a TGI (COLO 205 colon) of 5.73 µM. The GI50 (SF-295 CNS) was 1.73 µM, the TGI (SF-295 CNS) was 5.74 µM and the GI50 (RXF 393 renal) was 0.934 µM. The TGI (RXF 393 renal) was 4.02 µM, the GI50 (HOP-62 NSCLC) was 2.2 µM and the TGI (HOP-62 NSCLC) was 7.63 µM. For the same molecule, the GI50 (OVCAR-4 ovarian) was 5.79 µM, the TGI (OVCAR-4 ovarian) was greater than 29 µM and the GI50 (T-47D breast) was 2.42 µM. It also gave a TGI (T-47D breast) greater than 29 µM, a GI50 (OVCAR-5 ovarian) of 1.02 µM and a TGI (OVCAR-5 ovarian) of 5.07 µM. It also gave a GI50 (TK-10 renal) of 1.42 µM, a TGI (TK-10 renal) of 12 µM and a GI50 (MOLT-4 leukemia) of 0.93 µM. For the same molecule, the TGI (MOLT-4 leukemia) was 7.6 µM, the GI50 (NCI-H23 lung) was 1.47 µM and the TGI (NCI-H23 lung) was 5.08 µM. For the same molecule, the GI50 (A498 renal) was 1.31 µM, the TGI (A498 renal) was 6.79 µM and the GI50 (M14 melanoma) was 2.99 µM. It also gave a TGI (M14 melanoma) of 10.1 µM, a GI50 (U251 CNS) of 2.78 µM and a TGI (U251 CNS) of 15.8 µM. It also gave a GI50 (SN12C renal) of 3.29 µM, a TGI (SN12C renal) of 7.05 µM and a GI50 (OVCAR-3 ovarian) of 3.06 µM. It also gave a TGI (OVCAR-3 ovarian) of 12.1 µM, a GI50 (HT29 colon) of 1.43 µM and a TGI (HT29 colon) of 14.1 µM. It also gave a GI50 (MDA-MB-435) of 1.22 µM, a TGI (MDA-MB-435) of 5.03 µM and a GI50 (SK-OV-3 ovarian) of 2 µM. It also gave a TGI (SK-OV-3 ovarian) of 9.87 µM, a GI50 (BT-549 breast) of 7.71 µM and a TGI (BT-549 breast) of 15.4 µM. For the same molecule, the GI50 (SK-MEL-2 melanoma) was 4.75 µM, the TGI (SK-MEL-2 melanoma) was 11.4 µM and the GI50 (MCF7 breast) was 3.8 µM. The TGI (MCF7 breast) was 12.4 µM, the GI50 (CCRF-CEM leukemia) was 1.41 µM and the TGI (CCRF-CEM leukemia) was greater than 29 µM. For the same molecule, the GI50 (A549 NSCLC) was 3.1 µM, the TGI (A549 NSCLC) was 15.5 µM and the GI50 (HCT-15 colon) was 3.59 µM. For the same molecule, the TGI (HCT-15 colon) was 7.81 µM, the GI50 (HCT-116 colon) was 0.993 µM and the TGI (HCT-116 colon) was 5.6 µM. The GI50 (NCI/ADR-RES ovarian) was 0.636 µM, the TGI (NCI/ADR-RES ovarian) was 2.03 µM and the GI50 (UACC-62 melanoma) was 1.04 µM. The TGI (UACC-62 melanoma) was 4.42 µM.
